For orientation: pKi means the negative decadic logarithm of the Ki, by convention in mol/L.

These results are taken from patent US8580811B2 (Ligand Pharmaceuticals Incorporated, priority 2005, dated 2013).

pKi: −log10 of the molar value.

In one assay the target is T1, human AR (Homo sapiens, UniProt P10275).
T1 construct: expressed in transfected cells; host or cells: COS-1 cells
T1 sequence (P10275 1-920): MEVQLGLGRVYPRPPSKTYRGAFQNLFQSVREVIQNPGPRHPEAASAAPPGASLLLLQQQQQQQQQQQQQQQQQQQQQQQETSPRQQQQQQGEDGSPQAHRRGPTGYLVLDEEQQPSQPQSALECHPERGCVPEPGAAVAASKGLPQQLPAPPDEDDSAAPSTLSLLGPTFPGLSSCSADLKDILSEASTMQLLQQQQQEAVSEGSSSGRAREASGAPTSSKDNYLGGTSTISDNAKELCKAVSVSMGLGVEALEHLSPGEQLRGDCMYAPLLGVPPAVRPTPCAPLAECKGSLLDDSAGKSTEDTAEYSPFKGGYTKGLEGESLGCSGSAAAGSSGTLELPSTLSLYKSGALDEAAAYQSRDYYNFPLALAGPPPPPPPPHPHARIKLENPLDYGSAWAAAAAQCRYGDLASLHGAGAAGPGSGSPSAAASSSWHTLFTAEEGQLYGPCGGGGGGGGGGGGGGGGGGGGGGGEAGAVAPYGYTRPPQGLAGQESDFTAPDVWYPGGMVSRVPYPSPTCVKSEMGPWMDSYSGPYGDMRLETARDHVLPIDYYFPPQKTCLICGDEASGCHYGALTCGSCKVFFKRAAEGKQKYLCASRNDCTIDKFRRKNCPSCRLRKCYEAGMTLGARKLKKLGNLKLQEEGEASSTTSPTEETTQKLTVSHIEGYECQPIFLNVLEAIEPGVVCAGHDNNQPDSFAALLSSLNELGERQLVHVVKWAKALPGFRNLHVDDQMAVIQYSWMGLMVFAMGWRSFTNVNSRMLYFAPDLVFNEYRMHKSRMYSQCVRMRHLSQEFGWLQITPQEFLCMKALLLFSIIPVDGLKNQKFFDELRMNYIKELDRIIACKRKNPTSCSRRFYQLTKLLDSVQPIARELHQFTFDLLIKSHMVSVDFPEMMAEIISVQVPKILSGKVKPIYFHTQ
Description: IR Binding Assay: whole cell competitive binding of test compounds against 3H-DHT in COS-1 cells transfected with pRShAR.
Details: not given
The method in brief: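 COS-1 cells transfected with pRShAR plus β-Gal reporter, serum-starved 24 h, then exposed to 1 nM ³H-DHT with compounds at 10^−10 to 10^−6 M for 3 h at 37 °C. Bound ³H-DHT counted in lysates, normalized to β-Gal. IC50 from log-logit plot; Ki via Cheng-Prusoff using Kd from Scatchard saturation analysis.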
Consider `CCC1C(C)c2c(ccc3[nH]c(=O)cc(C(F)(F)F)c23)N1CCC(F)(F)F` (racemic) [Compound 180, (±)-2-Ethyl-1-methyl-9-trifluoromethyl-3-(3,3,3-trifluoropropyl)-1,2,3,6-tetrahydro-pyrrolo[3,2-f]quinolin-7-one], for which the pKi was more than 8.30.

`Cc1c(C)n(C[C@@H](O)C(F)(F)F)c2ccc3[nH]c(=O)cc(Cl)c3c12` [Compound 278, (R)-9-Chloro-1,2-dimethyl-3-(3,3,3-trifluoro-2-hydroxy-propyl)-3,6-dihydro-pyrrolo[3,2-f]-quinolin-7-one]: the negative-log Ki (pKi) is more than 8.30.

As to `Cc1ccc(-c2c(C)c3c4c(Cl)cc(=O)[nH]c4ccc3n2CC(F)(F)C(F)(F)F)o1` [Compound 267, 9-Chloro-1-methyl-2-(5-methylfuran-2-yl)-3-(2,2,3,3,3-pentafluoropropyl)-3,6-dihydro-pyrrolo[3,2-f]quinolin-7-one], the pKi was 8.00 to 8.30.

In turn, `CCc1c(-c2cccs2)n(CC(F)(F)F)c2ccc3[nH]c(=O)cc(Cl)c3c12` [Compound 209, 9-Chloro-1-ethyl-2-thien-2-yl-3-(2,2,2-trifluoroethyl)-3,6-dihydro-pyrrolo[3,2-f]quinolin-7-one] gave a pKi of more than 8.30.

With `CC1Cc2c(ccc3[nH]c(=O)cc(Cl)c23)N1CC(F)(F)F` (racemic) [Compound 131, (±)-9-Chloro-2-methyl-3-(2,2,2-trifluoro-ethyl)-1,2,3,6-tetrahydropyrrolo[3,2-f]quinolin-7-one], the pKi is less than 8.00.

Molecule `CCc1c(C)c2c3c(C(F)(F)F)cc(=O)[nH]c3ccc2n1CC(F)(F)Cl` [Compound 224, 3-(2-Chloro-2,2-difluoroethyl)-2-ethyl-1-methyl-9-trifluoromethyl-3,6-dihydro-pyrrolo[3,2-f]-quinolin-7-one] had a pKi of more than 8.30.

Turning to `Cc1cc2c(ccc3[nH]c(=O)cc(Cl)c32)[nH]1` [Compound 112, 9-Chloro-2-methyl-3,6-dihydro-pyrrolo[3,2-f]quinolin-7-one], the pKi is less than 8.00.

As to `Cc1c(C(F)(F)F)n(CC(F)(F)C(F)(F)F)c2ccc3[nH]c(=O)cc(Cl)c3c12` [Compound 260, 9-Chloro-1-methyl-3-(2,2,3,3,3-pentafluoropropyl)-2-(trifluoromethyl)-3,6-dihydro-pyrrolo[3,2-f]quinolin-7-one], the pKi was less than 8.00.

`CC1c2c(ccc3[nH]c(=O)cc(Cl)c23)N(CC(F)(F)F)C1c1ccc(Cl)cc1` (racemic) [Compound 152, (±)-9-Chloro-2-(4-chlorophenyl)-1-methyl-3-(2,2,2-trifluoroethyl)-1,2,3,6-tetrahydro-pyrrolo[3,2-f]quinolin-7-one] gave a pKi of less than 8.00.

In turn, `Cc1c(C)n(CC(O)CO)c2ccc3[nH]c(=O)cc(Cl)c3c12` (centres unmarked) [Compound 290, 9-Chloro-3-(2,3-dihydroxypropyl)-1,2-dimethyl-3,6-dihydro-pyrrolo[3,2-f]-quinolin-7-one] showed a pKi of less than 8.00.

Turning to `CC1c2c(cc(F)c3[nH]c(=O)cc(Cl)c23)N(CC(F)(F)F)C1C` (racemic) [Compound 151, (±)-9-Chloro-1,2-dimethyl-5-fluoro-3-(2,2,2-trifluoro-ethyl)-1,2,3,6-tetrahydro-pyrrolo[3,2-f]quinolin-7-one], the negative logarithm of the Ki (pKi) was more than 8.30.

`CC1c2c(ccc3[nH]c(=O)cc(Cl)c23)N(CC(F)(F)F)C1c1ccc(C(F)(F)F)cc1` (racemic) [Compound 147, (±)-9-Chloro-1-methyl-2-(4-trifluoromethyl-phenyl)-3-(2,2,2-trifluoroethyl)-1,2,3,6-tetrahydro-pyrrolo[3,2-f]quinolin-7-one] showed a pKi of less than 8.00.

With `Cc1c(C)n(CCC(F)(F)F)c2ccc3[nH]c(=O)cc(C(F)(F)F)c3c12` [Compound 221, 1,2-Dimethyl-9-trifluoromethyl-3-(3,3,3-trifluoropropyl)-3,6-dihydro-pyrrolo[3,2-f]-quinolin-7-one], the pKi is more than 8.30.

The molecule `Cc1c(C)n(C)c2ccc3[nH]c(=O)cc(Cl)c3c12` [Compound 208, 9-Chloro-1,2,3-trimethyl-3,6-dihydro-pyrrolo[3,2-f]quinolin-7-one] gave a negative-log Ki (pKi) of 8.00 to 8.30.

With `Cc1c[nH]c2ccc3[nH]c(=O)cc(Cl)c3c12` [Compound 114, 9-Chloro-1-methyl-3,6-dihydro-pyrrolo[3,2-f]quinolin-7-one], the pKi was less than 8.00.

For `CC1c2c(ccc3[nH]c(=O)cc(Cl)c23)N(CC(F)(F)F)C1c1ccc(F)cc1F` (racemic) [Compound 150, (±)-9-Chloro-2-(2,4-difluorophenyl)-1-methyl-3-(2,2,2-trifluoroethyl)-1,2,3,6-tetrahydropyrrolo-[3,2-f]quinolin-7-one], the pKi was less than 8.00.

As for `Cc1c(C)n(CCCBr)c2ccc3[nH]c(=O)cc(C(F)(F)F)c3c12` [Compound 288, 3-(3-Bromopropyl)-1,2-dimethyl-9-trifluoromethyl-3,6-dihydro-pyrrolo[3,2-f]-quinolin-7-one], the pKi is more than 8.30.

`O=c1cc(C(F)(F)F)c2c(ccc3c2c2c(n3CC(O)C(F)(F)F)CCC2)[nH]1` (racemic) [Compound 246, (±)-3-(3,3,3-Trifluoro-2-hydroxy-propyl)-9-trifluoromethyl-1,2-trimethylene-3,6-dihydro-pyrrolo[3,2-f]quinolin-7-one]: the pKi is 8.00 to 8.30.

Take `CCC1C(C)c2c(ccc3[nH]c(=O)cc(C(F)(F)F)c23)N1CCCC(F)(F)F` (racemic) [Compound 181, (±)-2-Ethyl-1-methyl-3-(4,4,4-trifluorobutyl)-9-trifluoromethyl-1,2,3,6-tetrahydro-pyrrolo[3,2-f]quinolin-7-one]: the negative logarithm of the Ki (pKi) is 8.00 to 8.30.

The molecule `CC1c2c(ccc3[nH]c(=O)cc(Cl)c23)N(CC(F)(F)F)C1c1cc(C(F)(F)F)cc(C(F)(F)F)c1` (racemic) [Compound 158, (±)-9-Chloro-2-(3,5-bis(trifluoromethyl)phenyl)-1-methyl-3-(2,2,2-trifluoroethyl)-1,2,3,6-tetrahydropyrrolo[3,2-f]quinolin-7-one] gave a pKi of more than 8.30.

`Cc1c(C)n(CCO)c2ccc3[nH]c(=O)cc(Cl)c3c12` [Compound 190, 9-Chloro-3-(2-hydroxy-ethyl)-1,2-dimethyl-3,6-dihydro-pyrrolo[3,2-f]quinolin-7-one] gave a pKi of less than 8.00.

The molecule `C=C(C)Cn1c(C)c(C)c2c3c(C(F)(F)F)cc(=O)[nH]c3ccc21` [Compound 237, 1,2-Dimethyl-3-(2-methyl-allyl)-9-trifluoromethyl-3,6-dihydro-pyrrolo[3,2-f]quinolin-7-one] showed a pKi of more than 8.30.

The molecule `CCC1c2c(ccc3[nH]c(=O)cc(Cl)c23)N(CC(F)(F)F)C1c1ccccc1` (racemic) [Compound 160, (±)-9-Chloro-1-ethyl-2-phenyl-3-(2,2,2-trifluoroethyl)-1,2,3,6-tetrahydro-pyrrolo[3,2-f]-quinolin-7-one] gave a negative-log Ki (pKi) of less than 8.00.

As to `CCc1c(C)c2c3c(C(F)(F)F)cc(=O)[nH]c3ccc2n1CC(F)(F)C(F)(F)F` [Compound 225, 2-Ethyl-1-methyl-3-(2,2,3,3,3-pentafluoropropyl)-9-trifluoromethyl-3,6-dihydro-pyrrolo[3,2-f]-quinolin-7-one], the negative logarithm of the Ki (pKi) is more than 8.30.

In the case of `CC1c2c(ccc3[nH]c(=O)cc(Cl)c23)N(Cc2ccccc2)C1C` (racemic) [Compound 144, (±)-9-Chloro-1,2-dimethyl-3-phenylmethyl-1,2,3,6-tetrahydro-pyrrolo[3,2-f]quinolin-7-one], the pKi was 8.00 to 8.30.

Molecule `CC1c2c(ccc3[nH]c(=O)cc(Cl)c23)N(CC(F)(F)Cl)C1C` (racemic) [Compound 138, (±)-9-Chloro-3-(2-chloro-2,2-difluoro-ethyl)-1,2-dimethyl-1,2,3,6-tetrahydro-pyrrolo[3,2-f]-quinolin-7-one] showed a pKi of more than 8.30.

Regarding `Cc1c(C)n(CCCO)c2ccc3[nH]c(=O)cc(Cl)c3c12` [Compound 287, 9-Chloro-1,2-dimethyl-3-(3-hydroxypropyl)-3,6-dihydro-pyrrolo[3,2-f]quinolin-7-one], the pKi is less than 8.00.

Take `CC1c2c(ccc3[nH]c(=O)cc(Cl)c23)N(CC(F)(F)F)C1C` (racemic) [Compound 127, (±)-9-Chloro-1,2-dimethyl-3-(2,2,2-trifluoro-ethyl)-1,2,3,6-tetrahydro-pyrrolo[3,2-f]quinolin-7-one]: the pKi was 8.00 to 8.30.

Still in this assay, the particulars now being: competition with 1 nM 3H-DHT, transfected COS-1 cells, 3 h at 37° C., Cheng-Prusoff from IC50; read-out: Ki.
As for `Cc1c(-c2ccc(Cl)cc2)n(CC(F)(F)F)c2ccc3[nH]c(=O)cc(Cl)c3c12` [Compound 206, 9-Chloro-2(4-chlorophenyl)-1-methyl-3-(2,2,2-trifluoroethyl)-3,6-dihydro-pyrrolo[3,2-f]quinolin-7-one], the pKi was less than 8.00.
